According to patent US12357621B2, “BET inhibitors as a treatment for myelofibrosis” (Impact Biomedicines, Inc., priority 2021, dated 2025):
pIC50: −log10 of the molar value. Where two headings read alike, the source gives them in different places.

Assays:
[1] = 125 mg QD; clinical studies; cited from earlier work
[2] = test system: bone marrow CD34+ cells from healthy volunteers; test: Colony-forming assay with normal hematopoietic progenitors (Example 2); format: cell-based; conditions: Homo sapiens, 336 h, healthy donors, 14 days
Method: (§1) Bone marrow or peripheral blood mononuclear cells from myelofibrosis (MF) patients were directly seeded in semisolid Methocult media (H3404) with Compound (I) alone, (at concentrations ranging from 1.25 to 10 nM) or in combination with Fed (at 100 and 300 nM) or Rux (at 30 and 100 nM). Treatment was added at the beginning and maintained throughout the 14-day incubation period without compound washout.
To test the effects of Compound (I) on the functionality of normal hematopoietic progenitors, colony-forming assays were also done with bone marrow CD34^+ cells from healthy volunteers using the same conditions of treatment as described for MF samples.
(§2) Colony forming unit (CFU) data acquisition and automatic colony counting were performed using the STEMvision device and software (StemCell Technologies, Vancouver, Canada). Counting corrections according to standard criteria were done manually by a trained user. GraphPad Prism 7 was used for data plotting and analysis.

SET-2 cells [3] = test: CellTiter-Glo proliferation/viability assay, single agent and JAKi combination (Example 1); format: cell-based; conditions: single agent
Method: (§3) HEL92.1.7 and SET-2 are post-MPN secondary acute myeloid leukemia (sAML) cell lines that harbor the JAK2 V617F mutation and serve as cell line models of the malignant clones driving disease in MPNs.
(§4) HEL92.1.792.1.7 (post-MPN sAML), a homozygous mutant (V617F), SET-2 (post-MPN sAML), a heterozygous mutant (V617F), were cultured in Roswell Park Memorial Institute (RPMI) 1640 medium (ATCC) supplemented with 10% or 20% fetal b ovine serum (FBS) (Corning) for HEL92.1.792.17 or SET-2 respectively, 2 mM L-glutamine (L-glu) (Gibco), and non-essential amino acid 1× (NEAA) cell culture supplement (Gibco). WI-38 primary lung fibroblastWI-38 were cultured in Eagle's Minimum Essential Medium (EMEM) (ATCC) with 10% FBS, 2 mM L-glu, and 1× NEAA.
(§5) CellTiter-Glo® (CTG), a luminescent dye that measures adenosine-5′-triphosphate (ATP), was used to quantify the cell proliferation in the 3 cell types in duplicate. Compound (I) was pre-spotted into 384-well plates (diluted in final dimethyl sulfoxide [DMSO] concentration of 0.1% for assay volume of 50 μL). A 10-point dose-response starting at […] with a 4-fold dilution that included one DMSO point and nine drug points was tested for each cell line. The JAK inhibitors (JAKi) Rux and Fed were also pre-spotted at concentrations of 0, 0.03, 0.1, 0.3, and 0.6 μM and HEL92.1.7 constant for each 10-point the Compound (I) dose-response curve (DRC) to produce five compounds of formula (I) DRCs for each JAKi in each cell line.
(§6) A cell suspension volume of 50 μL at their respective seeding densities was added to 384-well plates containing Compound (I) plus JAKi. The effect of Compound (I) single agent or JAKi combination on the proliferation/viability of cells was assessed after 3 days of incubation. Twenty-five microliters of CTG per well was then dispensed to the cell suspension, and ATP released by viable cells was measured after a 30-minute incubation as relative luminescence units (RLU) using an EnVision plate reader (PerkinElmer, Covina, CA). Cytotoxicity was indicated by a lower ATP level in the media after 3-day drug treatment compared to the Day 0 ATP level. Day 0 CTG was read for HEL92.1. and SET-2 suspension cell lines while the Day 0 CTG read for WI-38 could not be read because it is an adherent cell line.
(§7) Percent growth (% Growth) was calculated with the equation [% Growth=(Day 5 RLU—Day 0 RLU)/(Day 0 RLU)] while percent DMSO (% DMSO) was calculated with the equation [% DMSO=(Treatment RLU/DMSO RLU)×100]. All data was analyzed by GraphPad Prism 7 with the XY analyses nonlinear regression curve fit using the parameters for “log(inhibitor) vs. response—Variable slope (four parameters).” Cytotoxicity was called if any part of the DRC CTG signal went below the Day 0 CTG read and cytostatic effects were indicated by the DRC CTG signal staying above the Day 0 line.
(§8) Combination analysis was performed with software Combenefit version 2.021. Combination matrix plots describing additivity effects were generated with the Highest Single-Agent (HSA) model, combination matrix plots describing synergy effects were generated with the Bliss model, and the HSA and Bliss scores for each combination matrix plot were tabulated. An arbitrary cut off-of 10 for HSA and Bliss scores was used to reflect significant additivity and synergy, respectively. […]

HEL92.1.7 cells [4] = test: as above; format: cell-based; conditions: single agent; for pIC50: 3 days incubation, CTG
Method: as §3, §4, §5, §6, §7, §8

SET-2 cells [5] = test: CellTiter Glo cell viability assay (Example 5); format: cell-based; conditions: for pIC50: Homo sapiens
Method: (§9) Cells were seeded in 96-well plates at 10,000 cells per well in 100 μL of media containing either 0.1% DMSO or varying concentrations of drug. Cell viability was determined 3 days and 5 days later via the CellTiter GloLuminescent Cell Viability Assay from Promega (Madison, WI) according to the manufacturer's protocol. Specifically, 50 μL of reagent was added to each well and plates were incubated for 10 minutes in the dark to stabilize the luminescent signal. Luminescence was then detected using a chemiluminescence detection system (EnVision Multimode Microplate Reader; PerkinElmer).

HEL92.1.7 cells [6] = test: CellTiter Glo cell viability assay (Example 5); format: cell-based; conditions: for pIC50: Homo sapiens
Method: as §9

[7] = First-in-human PK study of Compound (I) (Example 6); format: in vivo; conditions: for Cmax: Cycle 2 Day 5, 5 days on/2 days off, read-out: Cmax Cycle 2 Steady State (geometric mean)
Method: A first-in-human study was conducted on Compound (I) with select advanced tumors and hematologic malignancies. PK data was available from 65 subjects across 5 doses and 3 schedules. Intensive samples were collected on Cycle 1 Day 1 and Cycle 2 Day 5, Day 7, or Day 14 based on dosing schedule (5 days on/2 days off, 7 days on/14 days off, and 14 days on/7 days off).

[8] = test system: primary human myelofibrosis samples; test: Colony formation assay in primary myelofibrosis samples (Example 2); format: cell-based; conditions: for pIC50: Homo sapiens
Method: as §1, §2

[9] = test system: mouse models of JAK2V617F-driven myeloproliferative disease; conditions: in vivo; cited from earlier work
[10] = test system: cell models expressing mutationally active JAK2V617F or FLT3ITD; conditions: cited from earlier work

Cc1noc2c1-c1ccccc1C(c1ccc(Cl)cc1)=N[C@H]2CC(N)=O [CPI-0610]
Cmax [1]: 4000 nM | T1/2 [1]: 16 h

Cc1nnn(C)c1-c1cnc2c3ccc(C(C)(C)O)cc3n([C@H](c3ccccc3)C3CCOCC3)c2c1 [Compound (I)]
pIC50 ([2]; read-out: IC50 for inhibition of BFU-E): ~8.64 | pIC50 ([2]; CFU-GM, read-out: IC50 for inhibition of CFU-GM): ~8.52 | pIC50 (SET-2 cells [3]; Homo sapiens, 72 h, 3 days incubation, CTG): 8.72 | cytotoxic vs cytostatic effect (SET-2 cells [3]; CTG signal vs Day 0): cytotoxic effects | pIC50 (HEL92.1.7 cells [4]; Homo sapiens, HEL 92.1.7, 72 h): 8.21 | pIC50 (HEL92.1.7 cells [4]): 8.25 | cytotoxic vs cytostatic effect (HEL92.1.7 cells [4]; CTG signal vs Day 0): cytotoxic effects | pIC50 (SET-2 cells [5]; 72 h, Day 3, read-out: single agent IC50): 8.55 | pIC50 (SET-2 cells [5]; 120 h, Day 5, read-out: single agent IC50): 8.62 | activity compared to CPI-0610 (SET-2 cells [5]; viability): better activity | pIC50 (HEL92.1.7 cells [6]; HEL 92.1.7, 72 h, Day 3, read-out: single agent IC50): 7.82 | pIC50 (HEL92.1.7 cells [6]; HEL 92.1.7, 120 h, Day 5, read-out: single agent IC50): 7.72 | activity compared to CPI-0610 (HEL92.1.7 cells [6]; viability): better activity | Cmax ([7]; dose 0.75 mg): 272 nM | Cmax ([7]; dose 1.25 mg): 577 nM | Cmax ([7]; dose 2.0 mg): 892 nM | Cmax ([7]; human, in vivo, dose 3.0 mg): 1200 nM | Cmax ([7]; human, in vivo, dose 4.5 mg): 1840 nM | half-life ([7]; in vivo, single dose, 5 days on/2 days off schedule, human, read-out: terminal half-life (converted)): ~64 h | pIC50 ([8]; 336 h, range among 10 primary human myelofibrosis samples, 14 days, read-out: IC50 values for inhibition of colonies): 8.35 to 8.90 | pIC50 ([8]; 336 h, sample MF 18 (JAK2), single agent, colony formation 14 days, read-out: IC50 Compound (I)): 8.80 | pIC50 ([8]; 336 h, sample MF 22 (WT), single agent, colony formation 14 days, read-out: IC50 Compound (I)): 8.43 | pIC50 ([8]; 336 h, sample MF 29 (JAK2), single agent, colony formation 14 days, read-out: IC50 Compound (I)): 8.59 | pIC50 ([8]; 336 h, sample MF 31 (CALR), single agent, colony formation 14 days, read-out: IC50 Compound (I)): 8.69 | pIC50 ([8]; 336 h, sample MF 33 (CALR), single agent, colony formation 14 days, read-out: IC50 Compound (I)): 8.35 | pIC50 ([8]; 336 h, sample MF 38 (WT), single agent, colony formation 14 days, read-out: IC50 Compound (I)): 8.68 | pIC50 ([8]; 336 h, sample MF 54 (JAK2), single agent, colony formation 14 days, read-out: IC50 Compound (I)): 8.90 | pIC50 ([8]; 336 h, sample MF 63 (CALR), single agent, colony formation 14 days, read-out: IC50 Compound (I)): 8.59 | pIC50 ([8]; 336 h, sample MF 76 (JAK2), single agent, colony formation 14 days, read-out: IC50 Compound (I)): 8.46 | pIC50 ([8]; 336 h, sample MF 77 (JAK2), single agent, colony formation 14 days, read-out: IC50 Compound (I)): 8.90 | therapeutic index (TI) ([8]; in 7 out of 10 MF samples, ratio of IC50 in MF sample and average IC50 in normal bone marrow CD34+ cells): > 1 fold

Cc1cnc(Nc2ccc(OCCN3CCCC3)cc2)nc1Nc1cccc(S(=O)(=O)NC(C)(C)C)c1 [fedratinib]
phosphorylation of STAT3/5 [9]: blocked | survival, WBC counts, hematocrit, splenomegaly, and fibrosis [9]: improved | apoptotic cell death [10]: induced | cell proliferation [10]: inhibited | phosphorylation of STAT3 and STAT5 proteins [10]: reduced | pIC50 ([8]; sample MF 18 (JAK2), fedratinib alone, read-out: IC50 FEDR): 6.84 | pIC50 ([8]; sample MF 22 (WT), fedratinib alone, read-out: IC50 FEDR): 6.51 | pIC50 ([8]; sample MF 29 (JAK2), fedratinib alone, read-out: IC50 FEDR): 6.33 | pIC50 ([8]; sample MF 31 (CALR), fedratinib alone, read-out: IC50 FEDR): 6.04 | pIC50 ([8]; sample MF 33 (CALR), fedratinib alone, read-out: IC50 FEDR): 6.03 | pIC50 ([8]; sample MF 38 (WT), fedratinib alone, read-out: IC50 FEDR): 6.03 | pIC50 ([8]; sample MF 54 (JAK2), fedratinib alone, read-out: IC50 FEDR): 6.42 | pIC50 ([8]; sample MF 63 (CALR), fedratinib alone, read-out: IC50 FEDR): 6.11 | pIC50 ([8]; sample MF 76 (JAK2), fedratinib alone, read-out: IC50 FEDR): < 6.00 | pIC50 ([8]; sample MF 77 (JAK2), fedratinib alone, read-out: IC50 FEDR): 6.16

N#CC[C@H](C1CCCC1)n1cc(-c2ncnc3[nH]ccc23)cn1 [ruxolitinib]
pIC50 ([8]; sample MF 18 (JAK2), ruxolitinib alone, read-out: IC50 RUX): 7.45 | pIC50 ([8]; sample MF 22 (WT), ruxolitinib alone, read-out: IC50 RUX): 6.67 | pIC50 ([8]; sample MF 29 (JAK2), ruxolitinib alone, read-out: IC50 RUX): 6.67 | pIC50 ([8]; sample MF 31 (CALR), ruxolitinib alone, read-out: IC50 RUX): 6.55 | pIC50 ([8]; sample MF 33 (CALR), ruxolitinib alone, read-out: IC50 RUX): 6.06 | pIC50 ([8]; sample MF 38 (WT), ruxolitinib alone, read-out: IC50 RUX): 6.66 | pIC50 ([8]; sample MF 54 (JAK2), ruxolitinib alone, read-out: IC50 RUX): 6.16 | pIC50 ([8]; sample MF 63 (CALR), ruxolitinib alone, read-out: IC50 RUX): 7.15 | pIC50 ([8]; sample MF 76 (JAK2), ruxolitinib alone, read-out: IC50 RUX): 6.16 | pIC50 ([8]; sample MF 77 (JAK2), ruxolitinib alone, read-out: IC50 RUX): 6.28
